Among the data in BindingDB's records for patent WO2025045746 (695 Avenue de la Résistance, 2025) are IC50 values, retold here.

In this assay the target is T1, NAD(+) hydrolase SARM1 [28-724] (UniProt Q6SZW1).
T1 construct: 28-724
T1 sequence (Q6SZW1 whole entry): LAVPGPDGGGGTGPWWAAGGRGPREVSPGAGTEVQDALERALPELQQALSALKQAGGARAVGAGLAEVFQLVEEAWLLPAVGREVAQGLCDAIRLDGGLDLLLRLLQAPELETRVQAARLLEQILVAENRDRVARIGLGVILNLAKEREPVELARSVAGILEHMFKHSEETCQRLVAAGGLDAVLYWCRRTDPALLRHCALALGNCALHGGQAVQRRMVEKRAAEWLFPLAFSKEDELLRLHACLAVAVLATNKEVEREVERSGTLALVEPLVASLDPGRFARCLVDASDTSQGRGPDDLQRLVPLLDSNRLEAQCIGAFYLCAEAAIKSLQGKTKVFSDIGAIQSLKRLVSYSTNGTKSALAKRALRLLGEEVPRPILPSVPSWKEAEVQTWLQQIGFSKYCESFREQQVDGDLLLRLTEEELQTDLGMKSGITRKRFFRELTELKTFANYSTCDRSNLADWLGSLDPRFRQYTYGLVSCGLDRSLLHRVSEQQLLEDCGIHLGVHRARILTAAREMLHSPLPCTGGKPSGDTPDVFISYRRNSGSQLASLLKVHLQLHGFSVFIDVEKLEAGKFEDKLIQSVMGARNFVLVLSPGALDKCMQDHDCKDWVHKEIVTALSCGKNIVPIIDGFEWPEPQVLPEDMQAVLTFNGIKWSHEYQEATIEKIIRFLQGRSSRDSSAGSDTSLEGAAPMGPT
As to the kind of experiment: SARM1 Inhibitory Activity. On the procedure: Assay reagents were prepared in 25mM HEPES pH 7.2, 50mM NaCl, 1mM EDTA and 0.0025% Tween20. […] The peak area of NAD and linear ADPR were measured by a RapidFire High Throughput Mass Spectrometry System (Agilent Technologies, Santa Clara, CA) using an API5000 triple quadrupole mass spectrometer (AB Sciex Framingham, MA). The ratio of linear ADPR to NAD peak area was then plotted against compound concentration to obtain an IC50 as fitted via non-linear regression.
As a reminder, the IC50 is the concentration that inhibits the measured activity by half. The compound `O=C(c1cc(-c2ccnnc2)n[nH]1)N1C[C@@H](O)[C@H](c2ccc(Cl)cc2)C1` [WO2025045746, Example 21] registered a half-maximal inhibitory concentration (IC50) of 0.351 µM. As for `Cc1c(-c2ccnnc2)n[nH]c1C(=O)N1CCC(c2ccc(Cl)cc2)C1` (configuration not stated) [WO2025045746, Example 5], the IC50 worked out at 0.427 µM.

In turn, `Cc1sc(C2CCN(C(=O)c3cc(-c4ccnnc4)n[nH]3)C2)cc1Br` (configuration not stated) [WO2025045746, Example 55] gave an IC50 of 2.17 µM. The compound `COc1cnccc1-c1cc(C(=O)N2CCC(c3ccc(Cl)cc3)C2)[nH]n1` (configuration not stated) [WO2025045746, Example 79] registered an IC50 of 3.05 µM.

On to `O=C(c1cc(-c2ccnnc2)n[nH]1)N1C[C@H](c2ccc(Cl)cc2)[C@@H](F)C1` [WO2025045746, Example 76], for which the half-maximal inhibitory concentration (IC50) was determined as 4.5 µM.

On to `O=C(c1cc(-c2ccnnc2)n[nH]1)N1C[C@@H](CO)[C@H](c2ccc(Cl)cc2)C1` [WO2025045746, Example 60], for which it took 0.072 µM to reach half-maximal inhibition (IC50). `O=C(c1cc(-c2ccncc2)n[nH]1)N1CCC(c2ccccc2Cl)C1` (configuration not stated) [WO2025045746, Example 6] displayed an IC50 of 3.04 µM. For `CC1CC(c2ccccc2)C(C)N1C(=O)c1cc(-c2ccnnc2)n[nH]1` (configuration not stated) [WO2025045746, Example 24], it took 9.48 µM to reach half-maximal inhibition (IC50). For the compound `O=C(c1cc(-c2ccnnc2)n[nH]1)N1CCC(c2ncc(Cl)s2)C1` (configuration not stated) [WO2025045746, Example 38], the midpoint of inhibition, the IC50, lay at 8.3 µM.

The compound `O=C(c1cc(-c2ccnnc2)n[nH]1)N1CCC(c2ccc(Cl)nc2)C1` (configuration not stated) [WO2025045746, Example 19] showed an IC50 of 0.469 µM. The result for `O=C(c1cc(-c2ccnnc2)n[nH]1)N1CCC(c2ccc(Cl)cc2)C1` (configuration not stated) [WO2025045746, Example 4] reads 0.191 µM; that for `Cc1csc(C2CCN(C(=O)c3cc(-c4ccnnc4)n[nH]3)C2)c1` (configuration not stated) [WO2025045746, Example 48], 7.41 µM; that for `O=C(c1[nH]nc(-c2ccnnc2)c1C1CC1)N1CCC(c2ccc(Cl)cc2)C1` (configuration not stated) [WO2025045746, Example 66], 3.02 µM. As to `N#C[C@@H]1CN(C(=O)c2cc(-c3ccnnc3)n[nH]2)C[C@H]1c1ccc(Cl)cc1` [WO2025045746, Example 72], the IC50 worked out at 0.563 µM. The result for `O=C(c1[nH]nc(-c2ccnnc2)c1Cl)N1CC[C@@H](c2ccc(F)c(F)c2)C1` [WO2025045746, Example 49] reads 0.379 µM; that for `O=C(c1cc(-c2ccncc2)n[nH]1)N1CC[C@H](c2ccc(Cl)cc2)C1` [WO2025045746, Example 26], 0.194 µM. `O=C(c1cc(-c2ccnnc2)n[nH]1)N1C[C@H](CO)[C@@H](c2ccc(Cl)cc2)C1` [WO2025045746, Example 61] yielded an IC50 of 1.24 µM.
